Reference: patent publication US20220347173A1, “METHODS OF TREATING LIVER FIBROSIS USING CALPAIN INHIBITORS” (Blade Therapeutics, Inc., priority 2018, published 2022)

Assays:
[1] = tested on: CCl4-induced liver fibrosis in male BALB/c mice; assay: Carbon Tetrachloride (CCl4)-induced liver fibrosis model; type: in vivo
Experimental: This study is performed to evaluate the effects of calpain compounds disclosed herein on a Carbon Tetrachloride (CCl4)-induced liver fibrosis in male BALB/c mice. Liver fibrosis is induced in mice by the administration of CCl4 twice weekly for four weeks. CCl4 administered animals are treated with compounds disclosed herein in a therapeutic treatment mode on day 14 post initiation of CCl4 injection and continued until study termination. Study is terminated 96 hours following the last CCl4 administration, i.e., on day 32 post CCl4 administration. Compounds described herein show an improvement in fibrosis score and no effect on liver enzymes, liver weight or body weight compared to vehicle.
Carbon tetrachloride (CCl4) is purchased from Sigma (cat #319961). To induce liver fibrosis, mice are administered CCl4 (1:1, CCl4:mineral oil) via intraperitoneal (ip) injection at a dose volume of 1 ml/kg body weight. On every CCl4 administration day animals are weighed prior to administration of CCl4 and the dose volume is adjusted as per body weight of individual animal. Animals are administered CCl4: mineral oil twice weekly i.e. every Monday and Thursday for four weeks, 2 hours post morning treatment. The final CCl4 injection is received on day 28 post first CCl4 injection.
Animals are bled via sub-mandibular route on day-4 prior to study initiation, and on day 13, post CCl4 administration, a day before the therapeutic treatment began. Plasma is prepared and stored at −20° C. until it is analyzed. Upon study termination day 32 post CCl4 administration, animals are bled via cardiac puncture. Serum is prepared and stored at −20° C. until shipped to contract company for liver enzyme panel analysis. […]
The procedures described above were followed using Compound 405 as a test compound administered at 30 mg/kg BID or 100 mg/kg BID. Body weights were measured prior to every CCl4 administration. […] Average liver weight of 2.24+/−0.06 g was recorded in animals treated with vehicle compared to no CCl4 administered control mice 1.45+/−0.03 g (p<0.0001).

[2] = tested on: CDAHFD rat model of non-alcoholic steatohepatitis (NASH); assay: Rat choline-deficient, amino acid-defined high fat diet (CDAHFD) model of NASH; type: in vivo, Male Wistar rats; details: for mRNA expression of CTGF: MC BID 42.89±32.82; for mRNA expression of IL-6: MC BID 54.89±47.23; for mRNA expression of Colla1: MC BID 106.6±59.97; for SMA (Acta2) protein expression: MC QD 5.82±0.67
Source text: A rat choline-deficient, amino acid-defined high fat diet (CDAHFD) model of non-alcoholic steatohepatitis (NASH) reproduces key features of the human disease. This model was used to examine the anti-fibrotic effects of Compound 405 (shown in Table 1a) in the CDAHFD rat model.
Male Wistar rats (Charles River Laboratories) were randomly assigned to receive the following treatments: Group 1 (n=8) served as a healthy control and were fed normal chow for 12 weeks; Group 2 (n=8) served as a disease control and was fed a CDAHFD and received once daily (QD) oral gavage treatment with vehicle Methylcellulose (MC) beginning at week 5 post CDAHFD, Group 3 (n=8) served as a disease control and was fed a CDAHFD and received twice daily (BID) oral gavage treatment with vehicle Methylcellulose (MC) beginning at week 5 post CDAHFD, Group 4 (n=8) was fed a CDAHFD and received QD oral gavage treatment with Compound 405 (200 mg/kg) beginning at week 5 post CDAHFD, Group 5 (n=8) was fed a CDAHFD and received BID oral gavage treatment with Compound 405 (100 mg/kg) beginning at week 5 post CDAHFD, Group 6 (n=8) was fed a CDAHFD and received QD oral gavage treatment with Compound 405 (60 mg/kg) beginning at week 5 post CDAHFD, Group 7 (n=8) was fed a CDAHFD and received BID oral gavage treatment with Compound 405 (30 mg/kg) beginning at week 5 post CDAHFD. At the end of the study (12 weeks), liver tissue and serum was collected for further analysis. A part of the liver was used for histological analysis and the spare liver from each individual animal was snap frozen on liquid nitrogen and stored at −80° C. Serum was collected to measure ALT,

[3] = BID oral 100 mg/kg and 30 mg/kg, serum
[4] = QD oral 200 mg/kg and 60 mg/kg, serum

Structure (SMILES): Cc1nc(-c2ccccc2F)c(C(=O)NC(Cc2ccccc2)C(=O)C(N)=O)o1 (centres unmarked) [Compound 405]
- Fibrosis score (Picrosirius Red-stained liver sections, polarized light) ([1]; CCl4-treated mice, oral 30 mg/kg BID or 100 mg/kg BID from day 14, day 32): statistically significant reduction
- length and thickness of the collagen fibers (PSR-stained liver sections) ([1]; CCl4-treated mice, oral BID from day 14): decrease
- fibrosis ([1]; dosed therapeutically at 100 mg/kg, twice a day): significantly reduced
- mRNA expression of CTGF ([2]; 30 mg/kg BID, p<0.01): 3.55±1.35
- mRNA expression of IL-6 ([2]; 30 mg/kg BID, p<0.01): 2.80±1.35
- mRNA expression of SMA ([2]; 30 mg/kg BID, MC BID 73.65±37.51, p<0.01): 11.46±2.02
- mRNA expression of Colla1 ([2]; 30 mg/kg BID, p<0.01): 13.37±2.53
- Liver Weight (as a percent of total weight) ([2]; 30 mg/kg BID, p<0.05): 6.6 ± 0.3%
- fibrosis as measured by CPA ([2]; 60 mg/kg QD): did not significantly decrease
- fibrosis as measured by hydroxyproline ([2]; 60 mg/kg QD): did not significantly decrease
- SMA (Acta2) protein expression ([2]; 60 mg/kg QD, p<0.01): 2.40±1.16%
- collagen deposition ([2]; 100 mg/kg BID): reduced
- SMA (Acta2) protein expression in livers ([2]; 100 mg/kg BID, MC BID 7.08±1.36%, p<0.01): 2.01±1.14%
- mRNA expression of CTGF ([2]; 100 mg/kg BID, p<0.05): 3.84±2.24
- mRNA expression of IL-6 ([2]; 100 mg/kg BID, p<0.01): 15.81±9.01
- mRNA expression of Colla1 ([2]; 100 mg/kg BID, p<0.01): 35.76±33.84
- hydroxyproline ([2]; 100 mg/kg BID, MC BID 706.9±173.5 nmol/L, p<0.05): 458.2 ± 146 nmol/L
- Liver Weight (as a percent of total weight) ([2]; 100 mg/kg BID, p<0.05): 6.6 ± 0.8%
- SMA (Acta2) protein expression ([2]; 200 mg/kg QD, p<0.01): 1.7±0.58%
- collagen proportional area (CPA) ([2]; 200 mg/kg QD, MC QD 11.28±3.50%, liver at 12 weeks): 6.08±1.69%
- hydroxyproline ([2]; 200 mg/kg QD, MC QD 731.3±165.9 nmol/L, p<0.05): 495.1 ± 113.9 nmol/L
- pro-fibrotic or inflammatory gene expression (mRNA) ([2]; 200 mg/kg or 60 mg/kg QD): did not significantly decrease
- spleen weight (as a percent of total weight) ([2]; BID oral 100 mg/kg and 30 mg/kg): did not affect
- body weight ([2]; BID oral 100 mg/kg and 30 mg/kg, weeks 5-12): did not affect
- albumin levels [2, 3]: did not alter
- level of blood transaminases (U/L) including ALT, AST, and ALP vs MC BID [2, 3]: did not change
- Total bilirubin ([2]; BID study, serum): did not change significantly
- expression of Calpain1 ([2]; BID treatment): did not change
- expression of Calpain 2 ([2]; BID treatment): did not change
- liver fat content (histological analysis of steatosis) ([2]; BID treatment): did not change
- body weight relative to vehicle (methyl cellulose) control ([2]; QD oral 200 mg/kg and 60 mg/kg, weeks 5-12): did not alter
- albumin levels [2, 4]: did not change
- level of blood transaminases (ALT, AST, ALP) vs MC QD [2, 4]: did not alter
- Total bilirubin ([2]; QD study, serum): did not change significantly
- liver fat content (histological analysis of steatosis) ([2]; QD treatment): did not change
